# Measurements taken from patent publication US11382956B2, “Amylin analogues” (Zealand Pharma A/S, priority 2016, dated 2022).
# Numbered stars: 1 amine (or outer) side, 2 acyl side, 3 side chain; on linkers, the order of the positions; unused ones are H or OH. Bridge positions count the residues as written; N and C are the ends. Square brackets hold non-standard residues; d marks the D form. Peptide text beside a SMILES is read from it. * marks the point of attachment. C20 diacid = O=C(O)CCCCCCCCCCCCCCCCCCC(=O)*; γGlu = O=C(O)[C@H](CCC(=O)[*:2])N[*:1]; Hyp = O=C(O)[C@@H]1C[C@@H](O)CN1; NMeI = CC[C@H](C)[C@H](NC)C(=O)O; Aad = N[C@@H](CCCC(=O)O)C(=O)O; Orn = NCCC[C@H](N)C(=O)O; Sar = CNCC(=O)O
# How the values were obtained:
# [1] = Effect on acute food intake and body weight in normal Sprague Dawley rats; format: in vivo, Sprague Dawley (SD) rats; details: Dose: 30 nmol/kg sc, vehicle-corrected
# [2] = Pharmacokinetic (PK) profiling in rats; details: male, Sprague Dawley, plasma; rat, single sc bolus 30 nmol/kg; read-out: in vivo half life t1/2 (plasma terminal elimination half-life) (converted)
# Description: Sprague Dawley male rats were given a single subcutaneous (sc) bolus of each peptide to be tested, as specified below.
# 30 nmol/kg doses of compound were administered. Blood samples were drawn from the tail vein prior to dosing and at 24 and 96 hours after dosing. The rats were euthanized immediately after the last blood sampling by concussion and cervical dislocation.
# The dosing vehicle used for each test peptide was a mannitol-containing histidine buffer (pH 7.0). Plasma samples were analyzed after precipitation with ethanol by liquid chromatography mass spectrometry (LC-MS/MS). Mean plasma concentrations were used for calculation of the pharmacokinetic parameters.
# Plasma terminal elimination half-life (t1/2) was determined as In(2)/λz, where λz is the magnitude of the slope of the log linear regression of the log concentration versus time profile during the terminal phase.
# [3] = molecular target: T1, recombinant human amylin 3 receptor (hAMYR3) (Homo sapiens, UniProt O60896+P30988); assay: hAMYR3 cAMP assay (AlphaScreen) in 1321N1 cells; format: cell-based; details: cAMP formation, 45 min stimulation
# T1 construct: host or cells: human astrocytoma cell line 1321N1
# T1 sequence (P30988 25-474): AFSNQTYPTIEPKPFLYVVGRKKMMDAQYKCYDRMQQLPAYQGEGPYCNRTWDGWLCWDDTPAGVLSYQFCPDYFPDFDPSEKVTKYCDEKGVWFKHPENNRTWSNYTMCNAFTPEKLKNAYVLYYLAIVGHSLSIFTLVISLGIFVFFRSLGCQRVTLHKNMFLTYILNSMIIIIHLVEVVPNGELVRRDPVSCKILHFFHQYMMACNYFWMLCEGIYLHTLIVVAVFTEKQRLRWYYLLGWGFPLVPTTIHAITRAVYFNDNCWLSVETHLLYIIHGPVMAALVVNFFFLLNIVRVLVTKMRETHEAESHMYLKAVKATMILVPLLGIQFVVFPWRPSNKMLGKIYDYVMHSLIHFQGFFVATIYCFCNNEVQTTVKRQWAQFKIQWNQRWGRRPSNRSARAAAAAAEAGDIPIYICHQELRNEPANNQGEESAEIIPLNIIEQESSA
# T1 sequence (O60896 24-148 partner): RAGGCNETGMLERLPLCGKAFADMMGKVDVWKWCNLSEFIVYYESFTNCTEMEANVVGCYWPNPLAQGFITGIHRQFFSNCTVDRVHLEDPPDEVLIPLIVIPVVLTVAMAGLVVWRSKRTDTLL
# Method in brief: (§1)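 1321N1 astrocytoma cells expressing recombinant human calcitonin receptor alone or with RAMP3 (AMY3) stimulated 45 min at room temperature with peptide in IBMX-containing buffer. cAMP quantified by AlphaScreen after 1 h bead incubation; EC50 fitted from at least 7 concentrations.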
# [4] = molecular target: T2, recombinant human calcitonin receptor (hCT-R) (Homo sapiens, UniProt P30988); assay: hCT-R cAMP assay (AlphaScreen) in 1321N1 cells; format: cell-based; details: cAMP formation, 45 min stimulation
# T2 construct: host or cells: human astrocytoma cell line 1321N1
# T2 sequence (P30988 25-474): T1 sequence (P30988 25-474)
# Method in brief: as §1
# [5] = Assessment of physical stability: fibril formation by Thioflavin T fluorescence; format: physicochemical; set-up: key: FND = fibrillation not detected; FD = fibrillation detected; details: 1 mg/mL peptide; for Fibrillation (in buffer) pH4 acetate: 50 mM acetate buffer pH 4.0, 96 hours at 40° C.; for Fibrillation (in buffer) pH7 histidine: 50 mM histidine buffer pH 7.0, 96 hours at 40° C.; for Fibrillation (in buffer) pH7 phosphate: 50 mM phosphate buffer pH 7.0, 96 hours at 40° C.
# Method in brief: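 Test peptide at 1 mg/mL with 40 μM ThT in 50 mM phosphate pH 7.0, 50 mM histidine pH 7.0, or 50 mM acetate pH 4.0, in triplicate. Fluorescence read every 10 min after 300 s agitation for 96 hours at 40° C; significant intensity rise scored as fibrillation detected (FD).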
# [6] = Assessment of chemical stability in 40 mM buffers at 40° C. (RP-HPLC); format: physicochemical; details: 1 mg/mL; for % degradation after 72 h at 40° C. pH4 acetate: acetate buffer pH 4, 72 h; for % degradation after 72 h at 40° C. pH6 phosphate: phosphate buffer pH 6, 72 h; for % degradation after 14 days at 40° C. pH6 phosphate: phosphate buffer pH 6, 14 days; for % degradation after 72 h at 40° C. pH7 phosphate: phosphate buffer pH 7, 72 h; for % degradation after 14 days at 40° C. pH7 phosphate: phosphate buffer pH 7, 14 days
# Method in brief: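 Peptides at 1 mg/mL in 40 mM acetate pH 4 or phosphate pH 6 and 7 were held at 40° C for 3 and 14 days. Main-peak area-% by C8 RP-HPLC, UV 220 nm; % degradation = change in main-peak area-% versus t=0.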
# [7] = cited from earlier work
# [8] = WO99/34764; cited from earlier work
half-life [2] [h],EC50 [3] [pM],EC50 [4] [pM],Fibrillation (in buffer) pH4 acetate [5],Fibrillation (in buffer) pH7 histidine [5],Fibrillation (in buffer) pH7 phosphate [5],% degradation after 72 h at 40° C. pH4 acetate [6] [%],% degradation after 72 h at 40° C. pH6 phosphate [6] [%],% degradation after 14 days at 40° C. pH6 phosphate [6] [%],% degradation after 72 h at 40° C. pH7 phosphate [6] [%],% degradation after 14 days at 40° C. pH7 phosphate [6] [%],"% degradation after 14 days at 40° C. pH4 acetate ([6]; acetate buffer pH 4, 14 days) [%]",Compound,Body weight reduction in % at 48 h [1] [%],Food intake reduction in % at 48 h [1] [%],effect on body weight in human trials [7],potency compared with other amylin analogues and human amylin [8]
31.1,3,9,FD,FND,FND,1.0,1.3,<1,2.0,3.7,,"CC[C@H](C)[C@@H](C(=O)N[C@@H](CC(C)C)C(=O)N[C@@H](CO)C(=O)N[C@@H](CO)C(=O)N[C@H](C(=O)N[C@@H](CCC(=O)O)C(=O)N[C@H](C(=O)NCC(=O)N[C@@H](CO)C(=O)N[C@@H](CC(N)=O)C(=O)N[C@H](C(=O)N1C[C@H](O)C[C@H]1C(N)=O)[C@@H](C)O)C(C)C)[C@@H](C)O)N(C)C(=O)[C@H](C)NC(=O)CN(C)C(=O)[C@H](Cc1ccccc1)NC(=O)[C@H](CO)NC(=O)[C@H](CO)NC(=O)[C@H](CCCNC(=N)N)NC(=O)[C@H](CCC(N)=O)NC(=O)[C@H](CC(C)C)NC(=O)[C@H](Cc1ccccc1)NC(=O)[C@H](CCCC(=O)O)NC(=O)[C@H](C)NC(=O)[C@H](CC(C)C)NC(=O)[C@H](CCCNC(=N)N)NC(=O)[C@H](CCC(=O)O)NC(=O)[C@@H](NC(=O)[C@H](C)NC(=O)[C@@H]1CCCNC(=O)C[C@H](NC(=O)[C@H](CCCNC(=N)N)NC(=O)CC[C@H](NC(=O)CCCCCCCCCCCCCCCCCCC(=O)O)C(=O)O)C(=O)NCC(=O)N[C@@H]([C@@H](C)O)C(=O)N[C@@H](C)C(=O)N[C@@H]([C@@H](C)O)C(=O)N1)[C@@H](C)O [Compound 20, [19CD]-isoGlu-RD()GTAT-Orn()-ATERLA-Aad-FLQRSSF-Gly(Me)-A-Ile(Me)-LSSTEVGSNT-Hyp-NH2] ({C20 diacid-γGlu}-RDGTAT[Orn]ATERLA[Aad]FLQRSSF[Sar]A[NMeI]LSSTEVGSNT[Hyp]-NH2; lactam 2-7)",7.8,49,,
36.1,28,66,FND,FND,FND,<1,<1,<1,1.4,<1,2,"CC[C@H](C)[C@@H](C(=O)N[C@@H](CC(C)C)C(=O)N[C@@H](CO)C(=O)N[C@@H](CO)C(=O)N[C@H](C(=O)N[C@@H](CCC(=O)O)C(=O)N[C@H](C(=O)NCC(=O)N[C@@H](CO)C(=O)N[C@@H](CC(N)=O)C(=O)N[C@H](C(=O)N1C[C@H](O)C[C@H]1C(N)=O)[C@@H](C)O)C(C)C)[C@@H](C)O)N(C)C(=O)[C@H](C)NC(=O)CN(C)C(=O)[C@H](Cc1ccccc1)NC(=O)[C@H](CO)NC(=O)[C@H](CO)NC(=O)[C@H](CCCNC(=N)N)NC(=O)[C@H](CCC(N)=O)NC(=O)[C@H](CC(C)C)NC(=O)[C@H](Cc1ccccc1)NC(=O)[C@H](CCCC(=O)O)NC(=O)[C@H](C)NC(=O)[C@H](CC(C)C)NC(=O)[C@H](CCCNC(=N)N)NC(=O)[C@H](CCC(=O)O)NC(=O)[C@@H](NC(=O)[C@H](C)NC(=O)[C@@H]1CCCCNC(=O)C[C@H](NC(=O)[C@H](CCCNC(=N)N)NC(=O)CC[C@H](NC(=O)CCCCCCCCCCCCCCCCCCC(=O)O)C(=O)O)C(=O)NCC(=O)N[C@@H]([C@@H](C)O)C(=O)N[C@@H](C)C(=O)N[C@@H]([C@@H](C)O)C(=O)N1)[C@@H](C)O [Compound 35, [19CD]-isoGlu-RD()GTATK()ATERLA-Aad-FLQRSSF-Gly(Me)-A-Ile(Me)-LSSTEVGSNT-Hyp-NH2] ({C20 diacid-γGlu}-RDGTATKATERLA[Aad]FLQRSSF[Sar]A[NMeI]LSSTEVGSNT[Hyp]-NH2; lactam 2-7)",12,72,,
31.8,60,114,FD,FND,FND,<1,<1,,<1,<1,,"CC[C@H](C)[C@@H](C(=O)N[C@@H](CC(C)C)C(=O)N[C@@H](CO)C(=O)N[C@@H](CO)C(=O)N[C@H](C(=O)N[C@@H](CCC(=O)O)C(=O)N[C@H](C(=O)NCC(=O)N[C@@H](CO)C(=O)N[C@@H](CC(N)=O)C(=O)N[C@H](C(=O)N1C[C@H](O)C[C@H]1C(N)=O)[C@@H](C)O)C(C)C)[C@@H](C)O)N(C)C(=O)[C@H](C)NC(=O)CN(C)C(=O)[C@H](Cc1ccccc1)NC(=O)[C@@H](NC(=O)[C@@H](NC(=O)[C@H](CCCNC(=N)N)NC(=O)[C@H](CCC(N)=O)NC(=O)[C@H](CC(C)C)NC(=O)[C@H](Cc1ccccc1)NC(=O)[C@H](CCCC(=O)O)NC(=O)[C@H](C)NC(=O)[C@H](CC(C)C)NC(=O)[C@H](CCCNC(=N)N)NC(=O)[C@H](CCC(=O)O)NC(=O)[C@@H](NC(=O)[C@H](C)NC(=O)[C@@H]1CCCCNC(=O)C[C@H](NC(=O)[C@H](CCCNC(=N)N)NC(=O)CC[C@H](NC(=O)CCCCCCCCCCCCCCCCCCC(=O)O)C(=O)O)C(=O)NCC(=O)N[C@@H]([C@@H](C)O)C(=O)N[C@@H](C)C(=O)N[C@@H]([C@@H](C)O)C(=O)N1)[C@@H](C)O)[C@@H](C)O)[C@@H](C)O [Compound 38, [19CD]-isoGlu-RD()GTATK()ATERLA-Aad-FLQRTTF-Gly(Me)-A-Ile(Me)-LSSTEVGSNT-Hyp-NH2] ({C20 diacid-γGlu}-RDGTATKATERLA[Aad]FLQRTTF[Sar]A[NMeI]LSSTEVGSNT[Hyp]-NH2; lactam 2-7)",8.2,43,,
,,,,,,,,,,,,CC[C@H](C)[C@H](NC(=O)[C@@H]1CCCN1C(=O)CNC(=O)[C@H](Cc1ccccc1)NC(=O)[C@H](CC(N)=O)NC(=O)[C@H](CC(N)=O)NC(=O)[C@H](CO)NC(=O)[C@H](CO)NC(=O)[C@H](Cc1c[nH]cn1)NC(=O)[C@@H](NC(=O)[C@H](CC(C)C)NC(=O)[C@H](Cc1ccccc1)NC(=O)[C@H](CC(N)=O)NC(=O)[C@H](C)NC(=O)[C@H](CC(C)C)NC(=O)[C@H](CCCNC(=N)N)NC(=O)[C@H](CCC(N)=O)NC(=O)[C@@H](NC(=O)[C@H](C)NC(=O)[C@@H]1CSSC[C@H](NC(=O)[C@@H](N)CCCCN)C(=O)N[C@@H](CC(N)=O)C(=O)N[C@@H]([C@@H](C)O)C(=O)N[C@@H](C)C(=O)N[C@@H]([C@@H](C)O)C(=O)N1)[C@@H](C)O)C(C)C)C(=O)N[C@@H](CC(C)C)C(=O)N1CCC[C@H]1C(=O)N1CCC[C@H]1C(=O)N[C@H](C(=O)N[C@@H](CC(N)=O)C(=O)N[C@H](C(=O)NCC(=O)N[C@@H](CO)C(=O)N[C@@H](CC(N)=O)C(=O)N[C@H](C(=O)N[C@@H](Cc1ccc(O)cc1)C(N)=O)[C@@H](C)O)C(C)C)[C@@H](C)O [pramlintide],,,reduce body weight or reduce weight gain,
,,,,,,,,,,,,"^2,7cyclo-[2Asp,7Lys]-h-amylin",,,,considerably lower potency
